Assay results from article PMC4748415, “Impact of different cell penetrating peptides on the efficacy of antisense therapeutics for targeting intracellular pathogens” (Scientific Reports, 2016).
Values after ≈ are worked out from the molar mass of the structure shown. Where two headings read alike, the source gives them in different places. Peptide text beside a SMILES is read from it.

Experiments:
[1] = test system: mitochondrial biogenesis in J774A.1 cells; assay: Mitobiogenesis assay (In-Cell ELISA, COX-I/SDH-A); settings: three days, tested at 0.1, 1, 10 and 20 μM, COX-I/SDH-A ratio
Procedure: To measure the effect of PNA on the mitochondrial biogenesis, In-Cell ELISA Kit (MitoSciences Inc., Eugene, OR, USA) was used as per the manufacturer’s instructions[54][55]. Briefly, J774A.1 cells were seeded (approximately 40,000 cells per well) in 96-well plates and allowed to adhere. […] Cells were allowed to grow for approximately 3 days. Media were removed and cells were washed with PBS, then fixed with 4% paraformaldehyde. After fixing, cells were washed with PBS and permeabilization and blocking processes were done according to the manufacturer’s instructions. Primary antibodies to detect the levels of two proteins (subunit I of Complex IV (COX-I), that is mitochondrial DNA (mtDNA)-encoded), and the 70 kDa subunit of Complex II (SDH-A), a nuclear DNA (nDNA)-encoded were added and incubated for overnight at 4 °C. After incubation, cells were washed with PBS and secondary antibodies were added and incubated at room temperature for one hour. After washing, the expression of SDH-A and COX-1 were measured at 405 nm and 600 nm wavelength, respectively. The ratio between COX-I and SDH-A was calculated and the percent of inhibition of mitochondrial biogenesis was determined.

[2] = test system: clinical isolates of L. monocytogenes; format: cell-based, Listeria monocytogenes
Procedure: The MICs of conjugated PNAs, free PNA, CPPs and untreated control against L. monocytogenes were determined using the broth microdilution method according to the Clinical and Laboratory Standards Institute (CLSI) guidelines with the following modifications. Briefly, low binding clear microcentrifuge tubes (USA scientific, Inc. Ocala, FL) were used in triplicates for each reaction instead of traditional 96-well plates. […] After a 16 hour incubation period (of test agent with bacteria), the number of viable bacteria was enumerated by serial dilution and counting on TSA plates. The MICs were repeated at least twice.

[3] = concentration required to inhibit 50% of L. monocytogenes isolates (six isolates)
[4] = strain ATCC 13932, broth microdilution in low binding tubes, triplicates, 16 hour incubation
[5] = strain ATCC 19111, broth microdilution in low binding tubes, triplicates, 16 hour incubation
[6] = strain ATCC 19112, broth microdilution in low binding tubes, triplicates, 16 hour incubation
[7] = strain ATCC 19114, broth microdilution in low binding tubes, triplicates, 16 hour incubation
[8] = strain F4244, broth microdilution in low binding tubes, triplicates, 16 hour incubation, no turbidity
[9] = strain J0161, broth microdilution in low binding tubes, triplicates, 16 hour incubation

Row | Compound | MIC50 [2, 3] | MIC [2, 4] | MIC [2, 5] | MIC [2, 6] | MIC [2, 7] | MIC [2, 8] | MIC [2, 9] | MIC50 ([2]; clinical isolates of, 16 h) | further results
1 | CC(=O)NC[C@H]1CN(c2ccc(N3CCOCC3)c(F)c2)C(=O)O1 [Linezolid, linezolid] | – | – | – | – | – | – | – | – | inhibition of mitochondrial protein synthesis (mitobiogenesis) [1]: 65%
2 | RFRRFRRFRRFRXB [(RFR)4XB, cell penetrating peptide (RFR)4XB, reference compound] | >128 µM | >128 µM | 32 µM | >128 µM | 128 µM | >128 µM | >128 µM | – | MIC ([2]; strain F4244, broth microdilution in low binding tubes, triplicates, 16 hour incubation, no turbidity, listed as RFR): no growth inhibition
3 | NCCCC[C@H](NC(=O)[C@H](Cc1ccccc1)NC(=O)[C@H](Cc1ccccc1)NC(=O)[C@H](CCCCN)NC(=O)[C@H](Cc1ccccc1)NC(=O)[C@H](Cc1ccccc1)NC(=O)[C@H](CCCCN)NC(=O)[C@H](Cc1ccccc1)NC(=O)[C@H](Cc1ccccc1)NC(=O)[C@@H](N)CCCCN)C(N)=O [KFF, reference compound] (H-KFFKFFKFFK-NH2) | – | – | – | – | – | – | – | 64 µM (≈ 90.4 µg/mL) | –
4 | RXRRXRRXRRXRXB [(RXR)4XB, cell penetrating peptide (RXR)4XB, reference compound] | >128 µM | >128 µM | >128 µM | >128 µM | >128 µM | >128 µM | >128 µM | – | MIC ([2]; strain F4244, broth microdilution in low binding tubes, triplicates, 16 hour incubation, no turbidity, listed as RXR): no growth inhibition
5 | N=C(N)NCCC[C@H](NC(=O)CN)C(=O)N[C@@H](CCCCN)C(=O)N[C@@H](CCCCN)C(=O)N[C@@H](CCCCN)C(=O)N[C@@H](CCCNC(=N)N)C(=O)N[C@@H](CCCNC(=N)N)C(=O)N[C@@H](CCC(N)=O)C(=O)N[C@@H](CCCNC(=N)N)C(=O)N[C@@H](CCCNC(=N)N)C(=O)N[C@@H](CCCNC(=N)N)C(=O)N[C@@H](Cc1ccc(O)cc1)C(=O)N[C@@H](CCCCN)C(=O)O [TAT, reference compound] (H-GRKKKRRQRRRYK-OH) | – | – | – | – | – | – | – | >128 µM | MIC ([2]; clinical isolates of, 16 h): >128 µM
